Like-named read-outs stand apart in the source and are kept apart here.
Legend:
Alternaria tenuis = assay: minimum inhibitory concentration (MIC) in agar culture media; synergism by Kull et al; format: cell-based; conditions: for X (synergism index by Kull et al): X=1 additivity, X>1 antagonism, X<1 synergism
Protocol: (§1) The MIC values of A and B are compared with the MIC values of mixtures A/B.
(§2) The synergism is determined according to the method described by Kull et al (F. C. Kull, P. C. Eismann, H. D. Sylvestrowicz, R. L. Mayer, Applied Microbiol. 9, 538 to 541, 1961). The following symbols apply here: [formula] X=1 denotes additivity X>1 denotes antagonism
(§3) Qa =concentration of compound A, which represents the MIC
(§4) Qb =concentration of compound B, which represents the MIC
(§5) QA =the amount of compound A in the concentration of A/B, which prevents the growth of microbes
(§6) QB =the amount of compound B in the concentration of A/B which prevents the growth of microbes.

Pullularia pullulans = assay: as above; format: cell-based; conditions: for X (synergism index by Kull et al): X=1 additivity, X>1 antagonism, X<1 synergism
Protocol: as §1, §2, §3, §4, §5, §6

Coniophora cerebella = assay: as above; format: cell-based; conditions: for X (synergism index by Kull et al): X=1 additivity, X>1 antagonism, X<1 synergism
Protocol: as §1, §2, §3, §4, §5, §6

Aspergillus niger = assay: as above; format: cell-based; conditions: for X (synergism index by Kull et al): X=1 additivity, X>1 antagonism, X<1 synergism
Protocol: as §1, §2, §3, §4, §5, §6

Trichoderma viride = assay: as above; format: cell-based; conditions: for X (synergism index by Kull et al): X=1 additivity, X>1 antagonism, X<1 synergism
Protocol: as §1, §2, §3, §4, §5, §6

Chaetomium globosum = assay: as above; format: cell-based; conditions: for X (synergism index by Kull et al): X=1 additivity, X>1 antagonism, X<1 synergism
Protocol: as §1, §2, §3, §4, §5, §6

[1] = as a formaldehyde depot substance; cited from earlier work
rats = conditions: comparison compound; cited from earlier work
[2] = test system: Chaetomium globosum Kunze and Aspergillus niger; assay: mould resistance of soap-wrapping paper; conditions: 0.5% by weight of paper added to pulp
Protocol: (§7) Based on the weight of the paper (90 to 100 g/m^2) 0.5% of A/B=6/1 is homogeneously mixed under a pulp (density 1%, pH value 4.8) having the following composition:
The mould resistance and the antimicrobial activity of the soap-wrapping paper obtained in this manner is tested in the following way:
Circular paper test specimens (diameter 4 cm) are placed in a nutrient medium in Petri dishes, the medium having previously been infested with the test fungi Chaetomium globosum Kunze and Aspergillus niger.

fungus = assay: paper production: pulp feeding system, losses of active compound, effluent and discharged air; conditions: 0.5% by weight of paper added to the pulp
Protocol: as §7
If, however, as is customary, owing to the lack up until now of usable alternatives, 0.5% of sodium pentachlorophenolate (related to the weight of the paper) is added to the pulp, losses of active compound amounting to more than 50% occur (approx. 25% are found in the effluent and approx. 25% in the outgoing air).

[3] = A differs between Example 1 and Example 6

SMILES	X (synergism index by Kull et al) (Alternaria tenuis)	MIC (Alternaria tenuis; agar culture media)	QA (amount of compound A in the concentration of A/B which prevents the growth of microbes) (Pullularia pullulans; [3])	X (synergism index by Kull et al) (Pullularia pullulans)	MIC (Pullularia pullulans; agar culture media)	QA (amount of compound A in the concentration of A/B which prevents the growth of microbes) (Coniophora cerebella; [3])	X (synergism index by Kull et al) (Coniophora cerebella)	MIC (Coniophora cerebella; agar culture media)	QA (amount of compound A in the concentration of A/B which prevents the growth of microbes) (Aspergillus niger; [3])	X (synergism index by Kull et al) (Aspergillus niger)	MIC (Aspergillus niger; agar culture media)	QA (amount of compound A in the concentration of A/B which prevents the growth of microbes) (Trichoderma viride; [3])	X (synergism index by Kull et al) (Trichoderma viride)	MIC (Trichoderma viride; agar culture media)	QA (amount of compound A in the concentration of A/B which prevents the growth of microbes) (Chaetomium globosum; [3])	X (synergism index by Kull et al) (Chaetomium globosum)	MIC (Chaetomium globosum; agar culture media)	other results
Oc1ccc(Cl)cc1Cc1cc(Cl)ccc1O [A/B 100/0 (Example 1), (2,2'-dihydroxy-5,5'-dichloro)-diphenyl-methane]	1	20 mg/L	20	1	20 mg/L	10	1	10 mg/L	20	1	20 mg/L	50	1	50 mg/L	50	1	50 mg/L	QA (amount of compound A in the concentration of A/B which prevents the growth of microbes) (Alternaria tenuis): 20; MIC (Alternaria tenuis; Alternaria alternata, read-out: Qa (concentration of compound A, which represents the MIC)): 20 mg/L; MIC (Pullularia pullulans; A differs between Example 1 and Example 6, read-out: Qa (concentration of compound A, which represents the MIC)): 20 mg/L; MIC (Coniophora cerebella; Coniophora cerebella, A differs between Example 1 and Example 6, read-out: Qa (concentration of compound A, which represents the MIC)): 10 mg/L; MIC (Aspergillus niger; Aspergillus niger, A differs between Example 1 and Example 6, read-out: Qa (concentration of compound A, which represents the MIC)): 20 mg/L; MIC (Trichoderma viride; Trichoderma viride, A differs between Example 1 and Example 6, read-out: Qa (concentration of compound A, which represents the MIC)): 50 mg/L; MIC (Chaetomium globosum; Chaetomium globosum, A differs between Example 1 and Example 6, read-out: Qa (concentration of compound A, which represents the MIC)): 50 mg/L
CN1CSC(=S)N(C)C1 [3,5-dimethyl-tetrahydro-1,3,5-thiadiazine-2-thione]																		stability [1]: only moderately stable
[Na+].[O-]c1c(Cl)c(Cl)c(Cl)c(Cl)c1Cl [sodium pentachlorophenolate]																		LD50 oral (rats): 270 mg/kg; mould-resistance of paper [2]: poor mould-resistance; discharged air problems (fungus): disagreable odours, mucosal irritation; effluent toxicity (fungus): the effluent is toxic to fish
COC(=O)Nc1nc2ccccc2[nH]1 [B, benzimidazolyl-methyl-carbamate]	1	5000 mg/L		1	0,25 mg/l		1	2000 mg/L		1	2,5 mg/l		1	2,5 mg/l		1	0,4 mg/l	QB (amount of compound B in the concentration of A/B which prevents the growth of microbes) (Alternaria tenuis): 5000; MIC (Alternaria tenuis; Alternaria alternata, read-out: Qb (concentration of compound B, which represents the MIC)): 5000 mg/L; QB (amount of compound B in the concentration of A/B which prevents the growth of microbes) (Pullularia pullulans): 0,25; MIC (Pullularia pullulans; read-out: Qb (concentration of compound B, which represents the MIC)): 0.25 mg/L; QB (amount of compound B in the concentration of A/B which prevents the growth of microbes) (Coniophora cerebella): 2000; MIC (Coniophora cerebella; Coniophora cerebella, read-out: Qb (concentration of compound B, which represents the MIC)): 2000 mg/L; QB (amount of compound B in the concentration of A/B which prevents the growth of microbes) (Aspergillus niger): 2,5; MIC (Aspergillus niger; Aspergillus niger, read-out: Qb (concentration of compound B, which represents the MIC)): 2.5 mg/L; QB (amount of compound B in the concentration of A/B which prevents the growth of microbes) (Trichoderma viride): 2,5; MIC (Trichoderma viride; Trichoderma viride, read-out: Qb (concentration of compound B, which represents the MIC)): 2.5 mg/L; QB (amount of compound B in the concentration of A/B which prevents the growth of microbes) (Chaetomium globosum): 0,4; MIC (Chaetomium globosum; Chaetomium globosum, read-out: Qb (concentration of compound B, which represents the MIC)): 0.4 mg/L
Oc1ccccc1-c1ccccc1 [A/B 100/0 (Example 6), 2-hydroxy-diphenyl]			50	1	50 mg/L	50	1	50 mg/L	50	1	50 mg/L	75	1	75 mg/L	50	1	50 mg/L	MIC (Pullularia pullulans; read-out: Qa (concentration of compound A, which represents the MIC)): 50 mg/L; MIC (Coniophora cerebella; Coniophora cerebella, read-out: Qa (concentration of compound A, which represents the MIC)): 50 mg/L; MIC (Aspergillus niger; Aspergillus niger, read-out: Qa (concentration of compound A, which represents the MIC)): 50 mg/L; MIC (Trichoderma viride; Trichoderma viride, read-out: Qa (concentration of compound A, which represents the MIC)): 75 mg/L; MIC (Chaetomium globosum; Chaetomium globosum, read-out: Qa (concentration of compound A, which represents the MIC)): 50 mg/L

From patent US4395274A, “Microbicidal agent and its use” (Bayer Aktiengesellschaft, priority 1979, dated 1983)
